Patent US6977262B2, “Dihydropyrazolopyridine compounds and pharmaceutical use thereof” (Mitsubishi Pharma Corporation, priority 2001, dated 2005)
Where a name gives a salt, the structure may show the parent alone.

Row | melting point | Structure (SMILES)
1 | 208 °C | CCCC1=C(C#N)C(c2cccc3oc(C)nc23)c2c[nH]nc2N1 (stereo not drawn) [Example 139, 5-Cyano-4,7-dihydro-4-(2-methylbenzoxazol-4-yl)-6-propyl-2H-pyrazolo[3,4-b]pyridine]
2 | 202 °C | N#CC1=C(C2CCCNC2)Nc2n[nH]cc2C1c1cccc2nonc12 (stereo not drawn) [Example 1005, 4-(2,1,3-Benzoxadiazol-4-yl)-5-cyano-4,7-dihydro-6-(piperidin-3-yl)-2H-pyrazolo[3,4-b]pyridine]
3 | 141 to 143 °C | CCCC1=C(C(=O)OCC)C(c2ccccc2Cl)c2cn(C(=O)OC)nc2N1 (stereo not drawn) [Example 207, Ethyl 4-(2-chlorophenyl)-4,7-dihydro-2-methoxycarbonyl-6-propyl-2H-pyrazolo[3,4-b]pyridine-5-carboxylate]
4 | > 270 °C | CCCC1=C(C#N)C(c2ccccc2Cl)c2c(n[nH]c2-c2ccc3ccccc3c2)N1 (stereo not drawn) [Example 301, 4-(2-Chlorophenyl)-5-cyano-4,7-dihydro-3-(naphthalen-2-yl)-6-propyl-2H-pyrazolo[3,4-b]pyridine]
5 | 234 to 235 °C | CCCC1=C(C#N)C(c2cccc([N+](=O)[O-])c2Cl)c2c[nH]nc2N1 (stereo not drawn) [Example 185, 4-(2-Chloro-3-nitrophenyl)-5-cyano-4,7-dihydro-6-propyl-2H-pyrazolo[3,4-b]pyridine]
6 | 160 °C | COCC1=C(C(=O)OC)C(c2ccccc2Cl)c2c[nH]nc2N1 (stereo not drawn) [Example 84, Methyl 4-(2-chlorophenyl)-4,7-dihydro-6-methoxymethyl-2H-pyrazolo[3,4-b]pyridine-5-carboxylate]
7 | 169 °C | CCCC1=C(C(=O)OCC)C(c2ccccc2OC)c2c[nH]nc2N1 (stereo not drawn) [Example 32, Ethyl 4,7-dihydro-4-(2-methoxyphenyl)-6-propyl-2H-pyrazolo[3,4-b]pyridine-5-carboxylate]
8 | 167 to 171 °C | CCCC1=C(C#N)C(c2ccccc2Cl)c2cn(C(=O)Nc3ccccc3)nc2N1 (stereo not drawn) [Example 284, 4-(2-Chlorophenyl)-5-cyano-4,7-dihydro-2-phenylcarbamoyl-6-propyl-2H-pyrazolo[3,4-b]pyridine]
9 | 231 °C | COc1ccccc1C1=C(C#N)C(c2cccc3nsnc23)c2c[nH]nc2N1 (stereo not drawn) [Example 163, 4-(2,1,3-Benzothiadiazol-4-yl)-5-cyano-4,7-dihydro-6-(2-methoxyphenyl)-2H-pyrazolo[3,4-b]pyridine]
10 | 237 °C | N#CC1=C(c2ccco2)Nc2n[nH]cc2C1c1cccc2nonc12 (stereo not drawn) [Example 173, 4-(2,1,3-Benzoxadiazol-4-yl)-5-cyano-6-(furan-2-yl)-4,7-dihydro-2H-pyrazolo[3,4-b]pyridine]
11 | 192 °C | COc1cccc(C2=C(C#N)C(c3ccccc3OC)c3c[nH]nc3N2)c1 (stereo not drawn) [Example 152, 5-Cyano-4,7-dihydro-4-(2-methoxyphenyl)-6-(3-methoxyphenyl)-2H-pyrazolo[3,4-b]pyridine]
12 | 216 °C | CCCC1=C(C#N)C(c2ccccc2SC)c2c[nH]nc2N1 (stereo not drawn) [Example 130, 5-Cyano-4,7-dihydro-4-(2-methylthiophenyl)-6-propyl-2H-pyrazolo[3,4-b]pyridine]
13 | 193 °C | N#CC1=C(C2CCCCC2)Nc2n[nH]cc2C1c1cccc(C#N)c1Br (stereo not drawn) [Example 325, 4-(2-Bromo-3-cyanophenyl)-5-cyano-6-cyclohexyl-4,7-dihydro-2H-pyrazolo[3,4-b]pyridine]
14 | 247 °C | CCOC(=O)C1=C(Cc2ccccc2)Nc2n[nH]cc2C1c1ccccc1Cl (stereo not drawn) [Example 88, Ethyl 6-benzyl-4-(2-chlorophenyl)-4,7-dihydro-2H-pyrazolo[3,4-b]pyridine-5-carboxylate]
15 | 140 to 143 °C | CCCC1=C(C(=O)OCC)C(c2cccc(Cl)c2)c2c[nH]nc2N1 (stereo not drawn) [Example 234, Ethyl 4-(3-chlorophenyl)-4,7-dihydro-6-propyl-2H-pyrazolo[3,4-b]pyridine-5-carboxylate]
16 | 115 °C | COC(CC1=C(C#N)C(c2cccc3nonc23)c2c[nH]nc2N1)OC (stereo not drawn) [Example 329, 4-(2,1,3-Benzoxadiazol-4-yl)-5-cyano-6-(2,2-dimethoxyethyl)-4,7-dihydro-2H-pyrazolo[3,4-b]pyridine]
17 | 228 °C | CCCC1=C([N+](=O)[O-])C(c2ccccc2Cl)c2c[nH]nc2N1 (stereo not drawn) [Example 93, 4-(2-Chlorophenyl)-4,7-dihydro-5-nitro-6-propyl-2H-pyrazolo[3,4-b]pyridine]

Row | melting point | Structure (SMILES)
18 | 225 to 228 °C (dec.) | CC(=O)C1=C(C#N)C(c2ccccc2Cl)c2c[nH]nc2N1 (stereo not drawn) [Example 1080, 6-Acetyl-4-(2-chlorophenyl)-5-cyano-4,7-dihydro-2H-pyrazolo[3,4-b]pyridine]
19 | 213 °C | N#CC1=C(c2cccc3ccccc23)Nc2n[nH]cc2C1c1cccc2nonc12 (stereo not drawn) [Example 169, 4-(2,1,3-Benzoxadiazol-4-yl)-5-cyano-4,7-dihydro-6-(naphthalen-1-yl)-2H-pyrazolo[3,4-b]pyridine]
20 | 236 to 238 °C (dec.) | N#CC1=C(C2CC2)Nc2n[nH]cc2C1c1ccccc1[N+](=O)[O-] (stereo not drawn) [Example 272, 5-Cyano-6-cyclopropyl-4,7-dihydro-4-(2-nitrophenyl)-2H-pyrazolo[3,4-b]pyridine]
21 | 180 °C | CN1CCOC(C2=C(C#N)C(c3cccc(C#N)c3Br)c3c[nH]nc3N2)C1 (stereo not drawn) (as salt: trifluoroacetate) [Example 1046, 4-(2-Bromo-3-cyanophenyl)-5-cyano-4,7-dihydro-6-(4-methylmorpholin-2-yl)-2H-pyrazolo[3,4-b]pyridine]
22 | 178 °C | CCCC1=C(C(=O)OCC)C(c2ccccc2C)c2c[nH]nc2N1 (stereo not drawn) [Example 30, Ethyl 4,7-dihydro-4-(2-methylphenyl)-6-propyl-2H-pyrazolo[3,4-b]pyridine-5-carboxylate]
23 | 209 °C | CCCCC1=C(C(=O)OCC)C(c2ccccc2Cl)c2c[nH]nc2N1 (stereo not drawn) [Example 83, Ethyl 6-butyl-4-(2-chlorophenyl)-4,7-dihydro-2H-pyrazolo[3,4-b]pyridine-5-carboxylate]
24 | 200 °C | CCOC(=O)C1=C(c2cccs2)Nc2n[nH]cc2C1c1ccccc1Cl (stereo not drawn) [Example 87, Ethyl 4-(2-chlorophenyl)-4,7-dihydro-6-(thiophen-2-yl)-2H-pyrazolo[3,4-b]pyridine-5-carboxylate]
25 | > 300 °C | CCC1=C(C#N)C(c2cccc(C#N)c2Br)c2c[nH]nc2N1 (stereo not drawn) [Example 198, 4-(2-Bromo-3-cyanophenyl)-5-cyano-6-ethyl-4,7-dihydro-2H-pyrazolo[3,4-b]pyridine]
26 | 198 °C | CCCC1=C(C(=O)OCC)C(c2ccccc2SC)c2c[nH]nc2N1 (stereo not drawn) [Example 39, Ethyl 4,7-dihydro-4-(2-methylthiophenyl)-6-propyl-2H-pyrazolo[3,4-b]pyridine-5-carboxylate]
27 | > 270 °C | N#CC1=C(c2ccccc2)Nc2n[nH]cc2C1c1cccc(C#N)c1Br (stereo not drawn) [Example 147, 4-(2-Bromo-3-cyanophenyl)-5-cyano-4,7-dihydro-6-phenyl-2H-pyrazolo[3,4-b]pyridine]
28 | > 270 °C | CC1=C([N+](=O)[O-])C(c2cccc(Cl)c2Cl)c2c[nH]nc2N1 (stereo not drawn) [Example 125, 4-(2,3-Dichlorophenyl)-4,7-dihydro-6-methyl-5-nitro-2H-pyrazolo[3,4-b]pyridine]
29 | 179 °C | CCCC1=C(C(=O)OCC)C(c2ccccc2N)c2c[nH]nc2N1 (stereo not drawn) [Example 99, Ethyl 4-(2-aminophenyl)-4,7-dihydro-6-propyl-2H-pyrazolo[3,4-b]pyridine-5-carboxylate]
30 | 237 °C | CCCC1=C(C#N)C(c2ccccc2Br)c2c[nH]nc2N1 (stereo not drawn) [Example 128, 4-(2-Bromophenyl)-5-cyano-4,7-dihydro-6-propyl-2H-pyrazolo[3,4-b]pyridine]
31 | 200 °C | COCn1cc(C2=C(C#N)C(c3cccc4nonc34)c3c[nH]nc3N2)c2ccccc21 (stereo not drawn) [Example 293, 4-(2,1,3-Benzoxadiazol-4-yl)-5-cyano-4,7-dihydro-6-(1-methoxymethylindol-3-yl)-2H-pyrazolo[3,4-b]pyridine]
32 | 203 °C | CCCC1=C(C(=O)OCC)C(c2ccccc2OCC)c2c[nH]nc2N1 (stereo not drawn) [Example 33, Ethyl 4-(2-ethoxyphenyl)-4,7-dihydro-6-propyl-2H-pyrazolo[3,4-b]pyridine-5-carboxylate]
33 | 204 °C | CC(C)(C)C1=C(C#N)C(c2cccc3nonc23)c2c[nH]nc2N1 (stereo not drawn) [Example 320, 4-(2,1,3-Benzoxadiazol-4-yl)-6-t-butyl-5-cyano-4,7-dihydro-2H-pyrazolo[3,4-b]pyridine]
34 | 230 °C | CCCC1=C(C#N)C(c2ccccc2C)c2c[nH]nc2N1 (stereo not drawn) [Example 131, 5-Cyano-4,7-dihydro-4-(2-methylphenyl)-6-propyl-2H-pyrazolo[3,4-b]pyridine]

Row | Structure (SMILES) | melting point
35 | CCCC1=C(C(=O)OCC)C(c2ccccc2Cl)c2cn(C(=O)OC(C)(C)C)nc2N1 (stereo not drawn) [Example 205, Ethyl 2-tert-butoxycarbonyl-4-(2-chlorophenyl)-4,7-dihydro-6-propyl-2H-pyrazolo[3,4-b]pyridine-5-carboxylate] | 144 to 147 °C
36 | CC(C)(C)OC(=O)N1CCC(C2=C(C#N)C(c3cccc4nonc34)c3c[nH]nc3N2)CC1 (stereo not drawn) [Example 1001, 4-(2,1,3-Benzoxadiazol-4-yl)-6-(1-t-butoxycarbonylpiperidin-4-yl)-5-cyano-4,7-dihydro-2H-pyrazolo[3,4-b]pyridine] | 226 °C
37 | CC(C)(C)OC(=O)N1CCCC(C2=C(C#N)C(c3cccc4nonc34)c3c[nH]nc3N2)C1 (stereo not drawn) [Example 1004, 4-(2,1,3-Benzoxadiazol-4-yl)-6-(1-t-butoxycarbonylpiperidin-3-yl)-5-cyano-4,7-dihydro-2H-pyrazolo[3,4-b]pyridine] | 229 °C
38 | CC(C)(C)OC(=O)n1cc(C2=C(C#N)C(c3cccc4nonc34)c3c[nH]nc3N2)c2ccccc21 (stereo not drawn) [Example 334, 4-(2,1,3-Benzoxadiazol-4-yl)-5-cyano-6-(1-t-butoxycarbonylindol-3-yl)-4,7-dihydro-2H-pyrazolo[3,4-b]pyridine] | 202 °C
39 | CCCC1=C(C#N)C(c2ccccc2Cl)c2cnn(C(=O)OC(C)(C)C)c2N1 (stereo not drawn) [Example 281, 1-tert-Butoxycarbonyl-4-(2-chlorophenyl)-5-cyano-4,7-dihydro-6-propyl-1 H-pyrazolo[3,4-b]pyridine] | 98 to 102 °C
